Experimental data taken from the supplement of paper PMC10307832.

How the values were obtained:
Experiment in all cases: relative viability (nuclei count vs DMSO), 5 days (fraction); higher = more cells survive
Linsitinib + Tozasertib = compound: C[C@]1(O)C[C@@H](c2nc(-c3ccc4ccc(-c5ccccc5)nc4c3)c3c(N)nccn32)C1 [Linsitinib] + Cc1cc(Nc2cc(N3CCN(C)CC3)nc(Sc3ccc(NC(=O)C4CC4)cc3)n2)n[nH]1 [Tozasertib] (partner 0.1 µM)
Summary of the method: (§1)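 A single step with final 0.05% Triton X-100, 1% formaldehyde and 1 ug/ml Hoechst fixed the cells and stained nuclei 5 days after treatment. Lung cancer cell lines in 1536-well plates had been treated by pin tool the day after seeding with one drug alone or a fixed anchor-drug dose plus five library-drug doses (not always all listed) in √10 steps, and nuclei were counted on 4× images. Relative viability is the ratio of nuclei in treated wells to nuclei in vehicle wells, taken as the median of duplicate plates.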

Ispinesib + Bortezomib = compound: Cc1ccc(C(=O)N(CCCN)[C@@H](c2nc3cc(Cl)ccc3c(=O)n2Cc2ccccc2)C(C)C)cc1 [Ispinesib] + CC(C)C[C@H](NC(=O)[C@H](Cc1ccccc1)NC(=O)c1cnccn1)B(O)O [Bortezomib] (partner 0.002 µM)
Summary of the method: as §1

Ispinesib + Lapatinib = compound: Cc1ccc(C(=O)N(CCCN)[C@@H](c2nc3cc(Cl)ccc3c(=O)n2Cc2ccccc2)C(C)C)cc1 [Ispinesib] + CS(=O)(=O)CCNCc1ccc(-c2ccc3ncnc(Nc4ccc(OCc5cccc(F)c5)c(Cl)c4)c3c2)o1 [Lapatinib] (partner 2 µM)
Summary of the method: as §1

Linsitinib + AZD7762 = compound: C[C@]1(O)C[C@@H](c2nc(-c3ccc4ccc(-c5ccccc5)nc4c3)c3c(N)nccn32)C1 [Linsitinib] + NC(=O)Nc1cc(-c2cccc(F)c2)sc1C(=O)N[C@H]1CCCNC1 [AZD7762] (partner 0.2 µM)
Summary of the method: as §1

Cell Line | relative viability (Linsitinib + Tozasertib; first compound 0.01 µM) | relative viability (Linsitinib + Tozasertib; first compound 0.03162 µM) | relative viability (Linsitinib + Tozasertib; first compound 0.1 µM) | relative viability (Linsitinib + Tozasertib; first compound 0.3162 µM) | relative viability (Linsitinib + Tozasertib; first compound 1 µM) | relative viability (Ispinesib + Bortezomib; first compound 0.001 µM) | relative viability (Ispinesib + Bortezomib; first compound 0.003162 µM) | relative viability (Ispinesib + Bortezomib; first compound 0.01 µM) | relative viability (Ispinesib + Bortezomib; first compound 0.03162 µM) | relative viability (Ispinesib + Bortezomib; first compound 0.1 µM) | relative viability (Ispinesib + Lapatinib; first compound 0.001 µM) | relative viability (Ispinesib + Lapatinib; first compound 0.003162 µM) | relative viability (Ispinesib + Lapatinib; first compound 0.01 µM) | relative viability (Ispinesib + Lapatinib; first compound 0.03162 µM) | relative viability (Ispinesib + Lapatinib; first compound 0.1 µM) | relative viability (Linsitinib + AZD7762; first compound 0.01 µM) | relative viability (Linsitinib + AZD7762; first compound 0.03162 µM) | relative viability (Linsitinib + AZD7762; first compound 0.1 µM) | relative viability (Linsitinib + AZD7762; first compound 0.3162 µM) | relative viability (Linsitinib + AZD7762; first compound 1 µM)
NCI-H2023 | 0.256 | 0.228 | 0.36 | 0.196 | 0.177 | 1 | 1.02 | 0.713 | 0.144 | 0.147 | 0.771 | 0.819 | 0.424 | 0.134 | 0.115 | – | – | – | – | –
Calu-6 | – | – | – | – | – | 0.9 | 0.725 | 0.24 | 0.137 | 0.202 | 1.24 | 0.955 | 0.526 | 0.217 | 0.256 | – | – | – | – | –
NCI-H522 | 0.525 | 0.516 | 0.521 | – | 0.514 | – | – | – | – | – | – | – | – | – | – | 0.771 | 0.958 | 1.09 | 0.654 | 0.612
HOP-62 | 0.356 | 0.336 | 0.335 | – | 0.344 | 0.46 | 0.974 | 1.18 | 1.09 | 0.32 | 1.11 | 1.07 | 1.15 | 1.11 | 0.231 | 0.583 | 0.577 | 0.769 | – | 0.298
H3255 | 0.626 | 0.65 | 0.612 | 0.497 | 0.559 | 1 | 0.991 | 0.814 | 0.38 | 0.374 | 0.214 | 0.171 | 0.205 | 0.176 | 0.236 | 0.7 | 0.884 | 0.813 | 0.69 | 0.806
NCI-H1734 | 0.242 | 0.244 | 0.274 | 0.242 | 0.267 | 0.943 | 0.954 | 0.997 | 0.962 | 0.328 | 1.16 | 1.11 | 1.4 | 0.408 | 0.296 | 0.61 | 0.534 | 0.579 | 0.794 | 0.363
SK-MES-1 | 0.92 | 0.895 | 0.927 | 0.8 | 0.676 | – | – | – | – | – | 0.534 | 0.506 | 0.54 | 0.5 | 0.168 | – | – | – | – | –
NCI-H1792 | – | – | – | – | – | 1.14 | 1.02 | 1.09 | 0.797 | 0.337 | 0.876 | 1.05 | 0.843 | 0.418 | 0.314 | 0.74 | 0.684 | 0.539 | 0.326 | 0.277
EKVX | 0.362 | 0.385 | 0.493 | 0.214 | 0.352 | 1.09 | 1.24 | 1.15 | 0.939 | 0.186 | 0.208 | 0.206 | 0.204 | 0.223 | 0.131 | – | 0.662 | 0.717 | 0.707 | 0.631
EPLC-272H | 0.358 | 0.249 | – | – | 0.222 | 0.869 | 1.13 | 0.935 | 0.655 | 0.163 | 0.919 | 1.11 | 1.02 | 0.561 | 0.145 | 0.186 | 0.22 | 0.221 | – | 0.334
LK-2 | 0.179 | 0.173 | 0.172 | 0.18 | 0.177 | – | – | – | – | – | 1.07 | 1.07 | 0.908 | 0.681 | 0.313 | 0.295 | 0.482 | 0.245 | 0.179 | 0.154
CAL-12T | 0.267 | 0.287 | 0.296 | 0.255 | 0.225 | 0.961 | 1.4 | 0.955 | 0.579 | 0.184 | 0.625 | 0.692 | 0.742 | 0.488 | 0.235 | 0.67 | 0.595 | 0.734 | 0.577 | 0.743
NCI-H322M | 0.44 | 0.455 | 0.568 | 0.399 | 0.463 | 1.38 | 1.33 | 1.41 | 0.722 | 0.757 | 0.654 | 0.585 | 0.616 | 0.438 | 0.319 | 0.575 | 0.411 | 0.485 | 0.49 | 0.414
NCI-H1650 | 0.412 | 0.549 | 0.412 | 0.323 | 0.288 | 0.187 | 0.211 | 0.188 | 0.173 | 0.205 | 0.799 | 0.715 | 0.387 | 0.211 | 0.208 | – | – | – | – | –
NCI-H1648 | 0.5 | 0.697 | 0.412 | – | 0.396 | – | – | – | – | – | – | – | – | – | – | 0.683 | 0.671 | 0.713 | 0.692 | 0.612
SW 1573 | 0.213 | 0.171 | 0.189 | 0.186 | 0.136 | 1.07 | 1.05 | 1.42 | 0.929 | 0.304 | 1.22 | 1.16 | 1.3 | 1.25 | 0.238 | – | – | – | – | –
NCI-H2405 | 0.726 | 0.755 | 0.729 | 0.666 | 0.497 | 1.02 | 1.05 | 1.11 | 0.924 | 0.81 | 1.08 | 1.12 | 1.18 | 0.918 | 0.308 | 0.74 | 0.662 | 0.711 | 0.859 | 0.474
LCLC-103H | 0.534 | 0.496 | 0.497 | 0.472 | 0.331 | 0.96 | 1.27 | 1.19 | 0.813 | 0.447 | – | – | – | – | – | 0.785 | 0.721 | 0.84 | 0.9 | 0.634
HCC-44 | 1.1 | 0.889 | 0.849 | 0.557 | 0.573 | 0.911 | 1 | 1.1 | 0.719 | 0.131 | 1.05 | 1.01 | 1.37 | 0.658 | 0.158 | 1.01 | 0.962 | 0.995 | 0.855 | 0.925
RERF-LC-KJ | 0.508 | 0.558 | 0.573 | 0.523 | 0.441 | 1.05 | 1.16 | 1.09 | 0.905 | 0.597 | 1.02 | 0.835 | 0.931 | 0.831 | 0.304 | 0.254 | 1.02 | 0.905 | 0.419 | 0.71
